From ChEMBL document CHEMBL1641543, “Synthesis and topoisomerase II inhibitory and cytotoxic activity of oxiranylmethoxy- and thiiranylmethoxy-chalcone derivatives” (Bioorg Med Chem Lett, 2011)

Key:
K562 = assay: Cytotoxicity against human K562 cells by MTT assay; assay type: functional, cell-based
HCT-15 = assay: Cytotoxicity against human HCT15 cells by MTT assay; assay type: functional, cell-based
DU-145 = assay: Cytotoxicity against human DU145 cells by MTT assay; assay type: functional, cell-based
MCF7 = assay: Cytotoxicity against human MCF7 cells by MTT assay; assay type: functional, cell-based
[1] = target: DNA topoisomerase 2-alpha (Homo sapiens) (UniProt P11388); assay: Inhibition of human topoisomerase 2-mediated relaxation of supercoiled pBR322 at 100 uM by agarose gel electrophoresis
[2] = target: DNA topoisomerase 2-alpha (Homo sapiens) (UniProt P11388); assay: Inhibition of human topoisomerase 2-mediated relaxation of supercoiled pBR322 at 20 uM by agarose gel electrophoresis
[3] = target: T1, DNA topoisomerase 1 (Homo sapiens) (UniProt P11387); assay: Inhibition of human topoisomerase 1-mediated relaxation of supercoiled pBR322 at 100 uM by agarose gel electrophoresis
T1 sequence (whole entry): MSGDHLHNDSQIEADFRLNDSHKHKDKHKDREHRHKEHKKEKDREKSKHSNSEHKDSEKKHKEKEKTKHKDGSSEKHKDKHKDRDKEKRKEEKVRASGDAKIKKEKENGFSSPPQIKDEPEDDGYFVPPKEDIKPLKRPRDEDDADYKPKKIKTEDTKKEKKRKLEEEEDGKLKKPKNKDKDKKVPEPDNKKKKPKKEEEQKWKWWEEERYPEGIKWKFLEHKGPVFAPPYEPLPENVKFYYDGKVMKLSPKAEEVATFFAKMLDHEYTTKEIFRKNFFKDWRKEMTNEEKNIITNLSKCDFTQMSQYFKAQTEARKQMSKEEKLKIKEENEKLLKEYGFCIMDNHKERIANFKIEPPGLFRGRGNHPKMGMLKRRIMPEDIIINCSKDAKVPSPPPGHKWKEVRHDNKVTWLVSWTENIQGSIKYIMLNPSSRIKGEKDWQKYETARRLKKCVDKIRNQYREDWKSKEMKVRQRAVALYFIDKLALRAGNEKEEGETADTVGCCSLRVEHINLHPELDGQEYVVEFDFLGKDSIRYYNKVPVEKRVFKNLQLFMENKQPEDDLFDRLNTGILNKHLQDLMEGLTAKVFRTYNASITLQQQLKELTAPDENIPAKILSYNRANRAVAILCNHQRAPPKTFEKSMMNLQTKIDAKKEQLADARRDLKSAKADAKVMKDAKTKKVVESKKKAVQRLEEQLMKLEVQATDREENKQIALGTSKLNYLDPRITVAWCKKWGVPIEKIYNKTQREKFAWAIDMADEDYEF

DNA topoisomerase 2-alpha (Homo sapiens), sequence (P11388 whole entry): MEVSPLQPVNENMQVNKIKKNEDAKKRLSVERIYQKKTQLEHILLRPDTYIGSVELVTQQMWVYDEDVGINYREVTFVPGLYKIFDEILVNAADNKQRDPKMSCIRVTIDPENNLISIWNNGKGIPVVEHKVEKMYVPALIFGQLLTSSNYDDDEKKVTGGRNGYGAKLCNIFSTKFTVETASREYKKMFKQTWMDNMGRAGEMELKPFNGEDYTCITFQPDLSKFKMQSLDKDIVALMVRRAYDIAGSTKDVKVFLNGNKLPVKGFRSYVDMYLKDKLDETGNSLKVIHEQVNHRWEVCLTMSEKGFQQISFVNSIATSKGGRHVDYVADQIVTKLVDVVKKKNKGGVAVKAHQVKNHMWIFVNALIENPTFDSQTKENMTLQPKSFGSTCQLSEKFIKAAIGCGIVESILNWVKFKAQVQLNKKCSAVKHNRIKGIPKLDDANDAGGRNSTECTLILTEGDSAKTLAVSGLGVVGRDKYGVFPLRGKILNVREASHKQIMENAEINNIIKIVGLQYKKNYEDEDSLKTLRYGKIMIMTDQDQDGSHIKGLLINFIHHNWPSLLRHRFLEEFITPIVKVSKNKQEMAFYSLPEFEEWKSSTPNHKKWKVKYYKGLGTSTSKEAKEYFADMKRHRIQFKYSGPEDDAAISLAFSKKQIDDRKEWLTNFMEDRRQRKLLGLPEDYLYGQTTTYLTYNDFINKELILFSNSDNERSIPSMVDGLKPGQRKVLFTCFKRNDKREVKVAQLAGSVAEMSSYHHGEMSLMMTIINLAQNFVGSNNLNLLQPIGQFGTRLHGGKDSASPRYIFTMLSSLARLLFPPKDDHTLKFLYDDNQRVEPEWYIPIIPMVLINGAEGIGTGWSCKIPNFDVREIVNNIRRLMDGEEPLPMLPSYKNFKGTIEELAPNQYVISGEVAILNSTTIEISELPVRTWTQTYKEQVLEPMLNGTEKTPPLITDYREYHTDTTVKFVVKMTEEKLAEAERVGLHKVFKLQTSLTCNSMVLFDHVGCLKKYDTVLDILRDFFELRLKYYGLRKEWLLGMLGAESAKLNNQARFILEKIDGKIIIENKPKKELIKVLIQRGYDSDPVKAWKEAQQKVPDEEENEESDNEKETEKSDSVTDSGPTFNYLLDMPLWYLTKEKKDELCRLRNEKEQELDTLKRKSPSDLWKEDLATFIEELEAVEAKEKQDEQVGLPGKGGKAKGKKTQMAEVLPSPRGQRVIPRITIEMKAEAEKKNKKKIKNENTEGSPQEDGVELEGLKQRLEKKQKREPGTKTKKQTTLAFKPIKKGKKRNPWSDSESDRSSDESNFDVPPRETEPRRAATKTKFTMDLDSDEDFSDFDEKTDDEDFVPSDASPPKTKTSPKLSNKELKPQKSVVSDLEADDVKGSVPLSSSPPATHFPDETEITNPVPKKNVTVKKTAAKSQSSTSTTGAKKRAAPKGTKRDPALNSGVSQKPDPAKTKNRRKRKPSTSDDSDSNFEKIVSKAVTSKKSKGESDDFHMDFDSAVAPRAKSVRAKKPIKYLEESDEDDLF

| SMILES | IC50 (K562) [µM] | IC50 (HCT-15) [µM] | IC50 (DU-145) [µM] | IC50 (MCF7) [µM] | inhibition [1] [%] | inhibition [2] [%] | inhibition [3] [%] |
| --- | --- | --- | --- | --- | --- | --- | --- |
| COc1cccc2c1C(=O)c1c(O)c3c(c(O)c1C2=O)C[C@@](O)(C(=O)CO)C[C@@H]3O[C@H]1C[C@H](N)[C@H](O)[C@H](C)O1 [DOXORUBICIN] | 1.33 | 1.25 | 1.75 | – | – | – | – |
| CC[C@@]1(O)C(=O)OCc2c1cc1n(c2=O)Cc2cc3ccccc3nc2-1 [CAMPTOTHECIN] | 0.59 | 0.8 | 0.61 | 2.43 | – | – | – |
| COc1ccc(/C=C/C(=O)c2ccc(OCC(O)CCl)cc2)cc1 (stereo not drawn) | 16.2 | 20.5 | > 50 | 18.4 | 34.9 | 16.3 | 0 |
| COc1ccc(/C=C/C(=O)c2ccc(OCC3CS3)cc2OCC2CS2)cc1 (stereo not drawn) | 7.6 | 0.23 | 1.07 | 0.49 | 61 | 20.8 | 0 |
| COc1ccc(/C=C/C(=O)c2ccc(OCC3CO3)cc2)cc1 (stereo not drawn) | 27.9 | 27.1 | 43.3 | 11.6 | 28.8 | 17.6 | 0 |
| COc1ccc(C(=O)/C=C/c2ccc(OCC(O)CCl)cc2)cc1 (stereo not drawn) | 29.1 | 20.6 | > 50 | 29.2 | 30.1 | 14 | 0 |
| COc1ccc(C(=O)/C=C/c2ccc(OCC3CO3)cc2)cc1 (stereo not drawn) | 33.5 | 30.4 | 36.9 | 10.9 | 22 | 15.2 | 0 |
| COc1ccc(C(=O)/C=C/c2ccc(OCC3CS3)cc2)cc1 (stereo not drawn) | 32.5 | 28.4 | > 50 | 11.5 | 31.6 | 15.5 | 0 |
| COc1cc([C@@H]2c3cc4c(cc3[C@@H](O[C@@H]3O[C@@H]5CO[C@@H](C)O[C@H]5[C@H](O)[C@H]3O)[C@H]3COC(=O)[C@H]23)OCO4)cc(OC)c1O [ETOPOSIDE] | 1.21 | 2.03 | 1.44 | 1.98 | 61.9 | 38 | – |
| O=C(/C=C/c1ccc(OCC2CO2)cc1)c1ccc(OCC2CO2)cc1 (stereo not drawn) | 7.27 | 18.5 | > 50 | 3.87 | 33.5 | 19.3 | 0 |
| COc1ccc(/C=C/C(=O)c2ccc(OCC3CS3)cc2)cc1 (stereo not drawn) | > 50 | 10.1 | 19.4 | 23.6 | 31.6 | 14.8 | 0 |
| O=C(/C=C/c1ccc(OCC2CS2)cc1)c1ccc(OCC2CS2)cc1 (stereo not drawn) | 13.4 | 12.2 | > 50 | 21.7 | 34.6 | 18 | 0 |
| COc1cc(OCC2CO2)ccc1/C=C/C(=O)c1ccc(OCC2CO2)cc1 (stereo not drawn) | 13.7 | 4.82 | > 50 | 3.64 | 28.5 | 14 | 0 |
